Values joined by “and” are separate entries in the source; they are usually repeats but may differ in a detail not shown here. Equal entries are not always repeated.
Legend:
Assay type in all cases: cell-based
porcine oocytes [1] = assay: Experiment 1: meiotic resumption of porcine oocytes cultured in maturation medium with 1 mM dbcAMP
Protocol: (§1) Ovaries were collected from prepubertal gilts at a local slaughterhouse and transported to the laboratory at 30-35° C. Antral follicles (2-5 mm in diameter) were aspirated with an 18-gauge needle using vacuum suction (40 mm Hg). […] Oocytes were cultured in 4-well plates (Nunc, Roskilde, Denmark) containing 500 μl of each medium. TCM-199 (Gibco) supplemented with 3.05 mM D-glucose, 0.91 mM Na-pyruvate, 0.57 mM cysteine, 10 ng/ml epidermal growth factor (Sigma), 10 IU/ml eCG (Sioux Biochemicals, Sioux Center, Iowa), 10 IU/ml hCG (Intervet, Millsboro, Del.), and 10% (v:v) porcine follicular fluid was used as a basic maturation medium.
After culture for each period, degenerated oocytes with lysed cytoplasmic membranes were removed.

porcine oocytes [2] = assay: Experiment 2: maturation to metaphase II of porcine oocytes treated with dbcAMP for 20 h, then cultured without dbcAMP; details: 1 mM dbcAMP for 20 h
Protocol: as §1
Oocytes continued to be cultured for additional 4, 10, 16, and 22 h and examined for meiotic progression to the M II stage by staining with 5 μg/ml Hoechst 33342.

[3] = system: porcine embryos reconstituted with 42-h-matured oocytes; assay: Experiment 5: in vitro development of porcine nuclear transfer embryos reconstituted with 42-h-matured oocytes treated with dbcAMP
Protocol: as §1
At the end of maturation, cumulus cells were removed by vortexing with 0.1% (w:v) hyaluronidase (Sigma) and denuded oocytes were transferred into 100 μl of Hepes-buffered TCM-199 with the osmolarity adjusted to 300 mOsm by adding sorbitol supplemented with 7.5 μg/ml cytochalasin B (Sigma) and 10% FCS (manipulation medium). The first polar body and MII plate were removed by aspiration with a 15-μm inner diameter glass pipette. The oocytes had been previously stained in the manipulation medium supplemented with 5 μg/ml Hoechst 33342 (Sigma) for 20 min and confirmation of successful enucleation was achieved by visualizing the cytoplast and removed cytoplasm under ultraviolet light. After enucleation, a donor cell was inserted into the perivitelline space of each enucleated oocyte using the same glass pipette. Cell-oocyte complexes were washed in TCM-199 supplemented with 10% FCS, transferred to the same medium and kept in a CO2 incubator adjusted to 5% CO2 in air at 38.5° C. until fusion.
The chamber for fusion was a 100 mm dish filled with 15 ml of Zimmerman fusion medium, Zimmerman, et al., Electric field-induced cell-to-cell fusion. J Membr Biol 1982, 67: 165-182. Two stainless steel wires (100 μm diameter) were used as electrodes and they were attached to micromanipulators. The single cell-oocyte complex was sandwiched between the electrodes and oriented with the contact surface between the cytoplast and the donor cell perpendicular to the electrodes. The distance between the electrodes was about 100 μm. Membrane fusion was induced by applying a single direct current pulse of 250 V/mm for a duration of 20 μsec with a prepulse of alternating current field of 5 V, 1 MHz for 2 sec using an LF 101 Fusion Machine (TR Tech Co., Tokyo, Japan). Following the fusion pulse, the complexes were washed in G1.2 medium, Gandhi, et al., Substrate utilization in porcine embryos cultured in NCSU23 and G1.2/G2.2 sequential culture media, Mol Reprod Dev 2001, 58: 269-275 and cultured for a period of 1 h in 100 μl of the same medium. Fusion was then determined by microscopic examination.
At 3 h after fusion, fused embryos were washed once in Zimmerman fusion medium and then placed between 2 wire electrodes (1 mm apart) of the fusion chamber slide with 15 ml of the medium. Direct current pulses of 75 V/mm were applied twice to the embryos for a duration of 60 μsec at intervals of 5 sec. Activated embryos were incubated in 100 μl of G1.2 medium supplemented with 7.5 μg/ml cytochalasin B for 2 h after activation to prevent extrusion of polar bodies, Miyoshi, et al. (2000) (supra), and then transferred into G1.2 medium. After culture in G 1.2 medium for 3 days, the embryos were transferred into 100 μl of G2.2 medium, Gandhi, et al., (2001) (supra), and continued to be cultured. The embryos were examined for cleavage and blastocyst formation at 2 and 7 days of culture, respectively. At the end of the culture period, all blastocysts were counted for nuclei after Hoechst staining. The blastocysts were placed on slides with a drop of mounting medium consisting of glycerol and PBS (9: 1) containing 0.1 mg/ml Hoechst 33342. A cover slip was placed on the top of the blastocysts and the edge was sealed with fingernail polish. The numbers of nuclei were counted under ultraviolet light. […]

[4] = then 4 h additional culture without dbcAMP
[5] = then 10 h additional culture without dbcAMP
[6] = then 16 h additional culture without dbcAMP
[7] = then 22 h additional culture without dbcAMP
[8] = oocytes treated with 1 mM dbcAMP for 20 h, 42-h-matured, examined at 2 days of culture
[9] = oocytes treated with 1 mM dbcAMP for 20 h, 42-h-matured, examined at 7 days of culture
[10] = oocytes treated with 1 mM dbcAMP for 20 h, M II oocytes collected at 42 h of maturation

CCCC(=O)Nc1ncnc2c1ncn2[C@@H]1O[C@@H]2COP(=O)(O)O[C@H]2[C@H]1OC(=O)CCC [dbcAMP, dibutyryl cyclic AMP]
No. of oocytes at the germinal vesicle stage (porcine oocytes [1]; 16 h of culture): 49
oocytes at the germinal vesicle stage (%), percentage (mean ± SEM) of oocytes examined (porcine oocytes [1]; 16 h of culture): 77.8% and 77.8 ± 3.2%
No. of oocytes at the germinal vesicle stage (porcine oocytes [1]; 20 h of culture): 43
oocytes at the germinal vesicle stage (%), percentage (mean ± SEM) of oocytes examined (porcine oocytes [1]; 20 h of culture): 72.9% and 72.9 ± 10.4%
No. of oocytes at the germinal vesicle stage (porcine oocytes [1]; 24 h of culture): 33
oocytes at the germinal vesicle stage (%), percentage (mean ± SEM) of oocytes examined (porcine oocytes [1]; 24 h of culture): 54.1 ± 7.0%
No. of oocytes at the germinal vesicle stage (porcine oocytes [1]; 42 h of culture): 27
oocytes at the germinal vesicle stage (%), percentage (mean ± SEM) of oocytes examined (porcine oocytes [1]; 42 h of culture): 44.3% and 44.3 ± 2.6%
effect of addition of dbcAMP on the percentage of GV oocytes versus absence (porcine oocytes [1]; at each culture period (16, 20, 24, 42 h), P<0.05): increased
effect of addition of dbcAMP on the percentage of M II oocytes versus absence (porcine oocytes [2]; at 10 h of additional culture, P<0.05): decreased
No. of oocytes at the metaphase II stage (porcine oocytes [2]; [4]): 30
oocytes at the metaphase II stage (%), percentage (mean ± SEM) of oocytes examined (porcine oocytes [2]; [4]): 35.3% and 35.3 ± 9.2%
No. of oocytes at the metaphase II stage (porcine oocytes [2]; [5]): 25
oocytes at the metaphase II stage (%), percentage (mean ± SEM) of oocytes examined (porcine oocytes [2]; [5]): 29.8% and 29.8 ± 1.4%
No. of oocytes at the metaphase II stage (porcine oocytes [2]; [6]): 54
oocytes at the metaphase II stage (%), percentage (mean ± SEM) of oocytes examined (porcine oocytes [2]; [6]): 67.5% and 67.5 ± 8.4%
No. of oocytes at the metaphase II stage (porcine oocytes [2]; [7]): 69
oocytes at the metaphase II stage (%), percentage (mean ± SEM) of oocytes examined (porcine oocytes [2]; [7]): 85.2 ± 5.0%
difference in mean numbers of cells in the blastocysts between presence and absence of dbcAMP treatment ([3]; 42-h-matured oocytes): no significant difference
difference in percentages of fused cell-oocyte complexes, cleaved embryos and embryos developed to blastocysts between presence and absence of dbcAMP treatment ([3]; 42-h-matured oocytes): no significant differences
Mean no. ± SEM of cells in blastocysts ([3]; oocytes treated with 1 mM dbcAMP for 20 h, 42-h-matured, blastocysts at end of culture): 49.0 ± 7.0
No. of embryos developed to ≧2-cell [3, 8]: 48
embryos developed to ≧2-cell (%), percentage (mean ± SEM) of complexes fused [3, 8]: 41.4 ± 8.3%
No. of embryos developed to Blastocyst [3, 9]: 2
embryos developed to Blastocyst (%), percentage (mean ± SEM) of complexes fused [3, 9]: 1.7 ± 1.5%
No. of complexes fused [3, 10]: 116
complexes fused (%), percentage (mean ± SEM) of complexes treated [3, 10]: 80.0 ± 4.5%

From US20030217378A1, “Cloning using rapidly matured oocytes” (The University of Georgia Research Foundation, Inc, priority 2002, published 2003)
